Common to all, as to experiment: Test B pre-/postemergence plant response
Format in all cases: in vivo
Common to all, as to conditions: 1000 g ai/ha, 0 to 100 scale (0 no effect, 100 complete control)

In test [1] the test system is barnyardgrass (Echinochloa crus-galli). The text has this: (§1) Seeds of plant species selected from bamyardgrass (Echinochloa crus-galli), kochia (Kochia scoparia), ragweed (common ragweed, Ambrosia elatior), Italian ryegrass (Lolium multiflorum), large (Lg) crabgrass (Digitaria sanguinalis), giant foxtail (Setaria faberii), momingglory (Ipomoea spp.), pigweed (Amaranthus retroflexus), velvetleaf (Abutilon theophrasti), wheat (Triticum aestivum), and corn (Zea mays) were planted into a blend of loam soil and sand and treated preemergence with a directed soil spray using test chemicals formulated in a non-phytotoxic solvent mixture which included a surfactant. At the same time, plants selected from these crop and weed species and also blackgrass (Alopecurus myosuroides), and galium (catchweed bedstraw, Galium aparine) were planted in pots containing the same blend of loam soil and sand and treated with postemergence applications of test chemicals formulated in the same manner. Plants ranged in height from 2 to 10 cm and were in the one- to two-leaf stage for the postemergence treatment. Treated plants and untreated controls were maintained in a greenhouse for approximately 10 days, after which time all treated plants were compared to untreated controls and visually evaluated for injury. Plant response ratings, summarized in Table B, are based on a 0 to 100 scale where 0 is no effect and 100 is complete control. A dash (-) response means no test result.

Test [2] concerns corn (Zea mays).
From the text: as §1

For test [3], the system named is velvetleaf (Abutilon theophrasti).
From the text: as §1

The test system of test [4] is large (Lg) crabgrass (Digitaria sanguinalis).
From the text: as §1

The subject of test [5] is morningglory (Ipomoea spp.).
From the text: as §1

The test system of test [6] is pigweed (Amaranthus retroflexus).
From the text: as §1

Test [7] concerns wheat (Triticum aestivum).
From the text: as §1

Test [8] deals with giant foxtail (Setaria faberii).
From the text: as §1

Consider `Clc1cnc(Oc2ccccc2-c2ncc(Cl)cn2)nc1` [Compound 3], for which the “Plant response rating, Barnyardgrass” value in test [1] (Postemergence) is on record as 50; in test [1] (Preemergence), 60. Besides, the “Plant response rating, Corn” value stood at 10 in test [2] (Postemergence) and 0 in test [2] (Preemergence). Moreover, the “Plant response rating, Velvetleaf” value in test [3] (Postemergence) is 100; in test [3] (Preemergence), 90. Further, the “Plant response rating, Crabgrass, Large” value worked out at 10 in test [4] (Postemergence) and 40 in test [4] (Preemergence). Further, the “Plant response rating, Morningglory” value amounted to 60 in test [5] (Postemergence) and 0 in test [5] (Preemergence). Besides, the figures for the “Plant response rating, Pigweed” value in test [6] (Postemergence) and in test [6] (Preemergence) were 70 and 50, respectively. In addition, the “Plant response rating, Wheat” value in test [7] (Postemergence) is given as 10; in test [7] (Preemergence), 0. The “Plant response rating, Foxtail, Giant” value in test [8] (Postemergence) is recorded as 20; in test [8] (Preemergence) it was 70.

For the compound `Brc1cnc(Oc2ccccc2-c2nnco2)nc1` [Compound 5], the entries for the “Plant response rating, Barnyardgrass” value in test [1] (Postemergence) and in test [1] (Preemergence) were 20 and 0, respectively. The “Plant response rating, Corn” value in test [2] (Postemergence) and in test [2] (Preemergence) was 0 throughout. Also, the figures for the “Plant response rating, Velvetleaf” value in test [3] (Postemergence) and in test [3] (Preemergence) were 30 and 20, respectively. Besides, the “Plant response rating, Crabgrass, Large” value in test [4] (Postemergence) and in test [4] (Preemergence) was 0 each time. The “Plant response rating, Morningglory” value in test [5] (Postemergence) was determined as 20; in test [5] (Preemergence), 0. The “Plant response rating, Pigweed” value came out at 70 in test [6] (Postemergence) and 90 in test [6] (Preemergence). Besides, the “Plant response rating, Wheat” value in test [7] (Postemergence) and in test [7] (Preemergence) was 0 each time. Also, the “Plant response rating, Foxtail, Giant” value in test [8] (Postemergence) and in test [8] (Preemergence) was 0 throughout.

With `Clc1cnc(Oc2ccccc2-c2nnco2)nc1` [Compound 6], the “Plant response rating, Barnyardgrass” value in test [1] (Postemergence) and in test [1] (Preemergence) was 0 throughout. Moreover, the “Plant response rating, Corn” value in test [2] (Postemergence) and in test [2] (Preemergence) was 0 each time. Besides, the “Plant response rating, Velvetleaf” value in test [3] (Postemergence) was 30; in test [3] (Preemergence) it was 20. Besides, the “Plant response rating, Crabgrass, Large” value in test [4] (Postemergence) turned out to be 20; in test [4] (Preemergence), 0. Further, the results for the “Plant response rating, Morningglory” value in test [5] (Postemergence) and in test [5] (Preemergence) were 20 and 0, respectively. Also, the “Plant response rating, Pigweed” value in test [6] (Postemergence) and in test [6] (Preemergence) was 70 throughout. For the same compound, the “Plant response rating, Wheat” value in test [7] (Postemergence) and in test [7] (Preemergence) was 0 in each case. Also, the “Plant response rating, Foxtail, Giant” value in test [8] (Postemergence) and in test [8] (Preemergence) was 0 in each case.

For the compound `Clc1cnc(Oc2ccccc2-c2cnco2)nc1` [Compound 7], the “Plant response rating, Barnyardgrass” value in test [1] (Postemergence) and in test [1] (Preemergence) was 10 throughout. The “Plant response rating, Corn” value was 10 in test [2] (Postemergence) and 0 in test [2] (Preemergence). In addition, the “Plant response rating, Velvetleaf” value in test [3] (Postemergence) and in test [3] (Preemergence) was 10 throughout. Besides, the “Plant response rating, Crabgrass, Large” value was determined as 20 in test [4] (Postemergence) and 40 in test [4] (Preemergence). In addition, the “Plant response rating, Morningglory” value amounted to 40 in test [5] (Postemergence) and 0 in test [5] (Preemergence). Moreover, the “Plant response rating, Pigweed” value in test [6] (Postemergence) was determined as 20; in test [6] (Preemergence), 40. Besides, the “Plant response rating, Wheat” value in test [7] (Postemergence) was 10; in test [7] (Preemergence) it was 0. In addition, the “Plant response rating, Foxtail, Giant” value in test [8] (Postemergence) and in test [8] (Preemergence) was 20 each time.

For `Clc1cnc(Oc2ccccc2-c2cscn2)nc1` [Compound 8], the “Plant response rating, Barnyardgrass” value in test [1] (Postemergence) is reported as 0; in test [1] (Preemergence), 30. Besides, the “Plant response rating, Corn” value in test [2] (Postemergence) and in test [2] (Preemergence) was 0 throughout. The “Plant response rating, Velvetleaf” value in test [3] (Postemergence) and in test [3] (Preemergence) was 30 throughout. The “Plant response rating, Crabgrass, Large” value in test [4] (Postemergence) came to 10; in test [4] (Preemergence), 80. For the same compound, the “Plant response rating, Morningglory” value in test [5] (Postemergence) is recorded as 10; in test [5] (Preemergence), 0. Besides, the “Plant response rating, Pigweed” value in test [6] (Postemergence) is 70; in test [6] (Preemergence), 100. Also, the “Plant response rating, Wheat” value in test [7] (Postemergence) and in test [7] (Preemergence) was 0 each time. Besides, the “Plant response rating, Foxtail, Giant” value in test [8] (Postemergence) is recorded as 0; in test [8] (Preemergence), 60.

As to `Clc1cnc(Oc2ccccc2-c2cncs2)nc1` [Compound 9], the “Plant response rating, Barnyardgrass” value in test [1] (Postemergence) was found to be 10; in test [1] (Preemergence), 20. The “Plant response rating, Corn” value in test [2] (Postemergence) is recorded as 10; in test [2] (Preemergence) it was 0. Also, the “Plant response rating, Velvetleaf” value in test [3] (Postemergence) worked out at 40; in test [3] (Preemergence), 10. The “Plant response rating, Crabgrass, Large” value in test [4] (Postemergence) is given as 50; in test [4] (Preemergence), 70. For the same compound, the “Plant response rating, Morningglory” value in test [5] (Postemergence) is given as 50; in test [5] (Preemergence), 0. The “Plant response rating, Pigweed” value in test [6] (Postemergence) is 60; in test [6] (Preemergence), 90. For the same compound, the “Plant response rating, Wheat” value in test [7] (Postemergence) is recorded as 10; in test [7] (Preemergence), 0. For the same compound, the “Plant response rating, Foxtail, Giant” value in test [8] (Postemergence) came to 20; in test [8] (Preemergence) it was 60.

The values are drawn from patent US10131652B2, “Pyrimidinyloxy benzene derivatives as herbicides” (E. I. DU PONT DE NEMOURS AND COMPANY, priority 2014, dated 2018).
